Measurements taken from ChEMBL document CHEMBL3758177, “Synthesis and biological evaluation of novel phosphoramidate derivatives of coumarin as chitin synthase inhibitors and antifungal agents” (Eur J Med Chem, 2016).

Tested on: Candida albicans
Assay: Antifungal activity against Candida albicans CMCC 76615 after seven days by disc diffusion method
Type: functional

O=c1oc2ccccc2c(Cl)c1/C=N/c1nncs1
diameter of the inhibition zone (DIZ): 15 mm
